From patent publication US8980276B2, “Conjugates for the prevention or treatment of nicotine addiction” (Pfizer Inc, priority 2010, dated 2015)

Key:
[1] = Dissolution of hapten-spacer conjugate for coupling; type: physicochemical; details: at 50 mg per ml
Description: a) The hapten-spacer conjugates were obtained as a yellow oil and stored at 2 to 8° C. until the day of use (for up to one week, longer storage was at −20° C.). […] The result was a yellow-brown suspension or solution.

[2] = system: anti-nicotine antibodies; test: Competition ELISA to determine specificity of antibodies induced by anti-nicotine vaccines; type: binding, mouse; details: plasma of mice immunized with conjugates of examples 1 and 2; inhibitors diluted serially from 20,000 μM

Compound | solubility in deionised water [1] | inhibition of binding of anti-nicotine antibodies to nicotine-coated ELISA plates by added inhibitor [2]
CN1CCC[C@H]1c1cncc(CCCNC(=O)CCCCCCN)c1 [Preparation 33, 7-amino-N-(3-{5-[(2S)-1-methylpyrrolidin-2-yl]pyridin-3-yl}propyl) heptanamide] | did not dissolve fully in deionised water | –
CN1C(=O)CC[C@H]1c1cccnc1 [cotinine] | – | no such effect is observed
CN1CCCC1c1cccnc1 (stereo not shown) [nicotine] | – | dose-dependent inhibition of binding
c1cnc2cc3c(cc2n1)[C@@H]1CNC[C@H]3C1 [varenicline] | – | no such effect is observed
